The values below come from US10997871B2, “Contractile function measuring devices, systems, and methods of use thereof” (President and Fellows of Harvard College, priority 2014, dated 2021).

For assay [1], the system named is cardiac tissue. The following applies: cited from earlier work.
Assay [2] relates to cardiac tissue. The experiment in a line: optogenetic muscle thin film contractile assay, frequency and dose-dependent response of drug-treated tissue. Type of assay: cell-based. The text has this:
The system 300 can incorporate the system 290. The system 300 can be substantially similar in structure and function to the systems discussed above, except for the distinctions noted herein. Therefore, like reference numbers represent like structures. The system 300 can include a lens 152 disposed above the platform 222 and a C-mount lens 302 (e.g., a 1× lens) disposed above the lens 152. The system 300 can further include a sensor 304 (e.g., a 100 frames per second complementary metal oxide semiconductor (CMOS) camera, or the like) disposed above the lens 302. The components 152, 302, 304 can be aligned along the vertical axis 164.
The system 300 can include mirror 306 (e.g., a mirror with an oblique angle), a filter 308 (e.g., an LP filter, such as 776LP), and a light source 310 aligned along an axis 312 substantially perpendicular to the vertical axis 164. Light imparted from the light source 310 can be directed by the mirror 306 at the tissue structures 224. The light can further be directed at the sensor 304. The system 300 provides a combination of an optogenetic tissue structure and an optical mapping system setup, including bright field microscopy for optogenetic tissue structures with the sensor 304 and red light illumination from the filter 308.
124 muscle thin films were tested on 15 chips or platforms using three harvests. The error bar indicates a standard error of mean and the shading indicates approximately 95% confidence limits. […] Thus, the independently paced optogenetic muscle thin films enable higher throughput assays to investigate the frequency-dependent response.
As an example, quinidine and verapamil (both frequency-dependent) were tested for frequency and dose-dependent response in cardiac tissue. In particular, optogenetic muscle thin films in a contractile assay were used to recapitulate frequency and dose dependent mechanical responses of drug-treated tissue. In particular, FIGS. 61 and 62 show the pacing frequency, change in spontaneous beating rate frequency, change in twitch stress, and change in maximum Dt/dt for quinidine and verapamil.

Molecules are shown by their SMILES.

Regarding `C=C[C@H]1C[N@@]2CC[C@H]1C[C@@H]2[C@@H](O)c1ccnc2ccc(OC)cc12` [quinidine], the “effect on myocardial contractility” value in the assay with cardiac tissue [1] (when given in therapeutic doses, general statement) is “does not directly affect myocardial contractility”.
With `COc1ccc(CCN(C)CCCC(C#N)(c2ccc(OC)c(OC)c2)C(C)C)cc1OC` (centres unmarked) [verapamil], in the assay with cardiac tissue [2] (at a low frequency with relatively low concentration, optical pacing), the “1:1 coupling” value is recorded as “low”. In the assay with cardiac tissue [2] (comparison of verapamil with quinidine), the “inotropic effect (twitch stress, contractility)” value is listed as “stronger negative inotropic effect than quinidine”. Also, in the assay on cardiac tissue [2] (drug-treated cardiac tissue), the spontaneous beating rate entry was “increase”. Besides, the “effect on calcium handling” value in the assay with cardiac tissue [1] (general statement explaining the inotropic result) is reported as “directly affects calcium handling”.
